Test results taken from article PMC8963254, “Effects of Lysine N-ζ-Methylation in Ultrashort Tetrabasic Lipopeptides (UTBLPs) on the Potentiation of Rifampicin, Novobiocin, and Niclosamide in Gram-Negative Bacteria” (Antibiotics, 2022).
≈ marks a conversion by molar mass, not a printed value. Read-outs that look alike come from different tables or passages of the source. Residues, ends and D or L forms follow the SMILES beside them. *: point of attachment. Octanoyl = CCCCCCCC(=O)*

Assays:
MRSA ATCC 33592 = type: cell-based, Staphylococcus aureus; conditions: ATCC 33592, 18 h
Procedure: (§1) The in vitro antibacterial activity of the UTBLPs was assessed against wild-type and clinically isolated bacterial strains. To obtain the MIC of the compounds, the microbroth dilution susceptibility assay was performed according to the Clinical and Laboratory Standards Institute (CLSI, Wayne, PA, USA) guidelines and as previously described. Briefly, the compounds at varying concentrations were incubated with bacterial inoculum (5 × 10^5 CFU/mL final concentration) at 37 °C for 18 h. Growth in the form of turbidity was confirmed using an EMax Plus microplate reader (Molecular Devices, San Jose, CA, USA) at 590 nm.

S. aureus ATCC 29213 = type: cell-based, Staphylococcus aureus; conditions: ATCC 29213, 18 h
Procedure: as §1

E. faecalis ATCC 29212 [1] = type: cell-based, Enterococcus faecalis; conditions: ATCC 29212, 18 h
Procedure: as §1

E. faecium ATCC 27270 [2] = type: cell-based, Enterococcus faecium; conditions: ATCC 27270, 18 h
Procedure: as §1

[3] = tested on: P. aeruginosa PA259-96196; experiment: microbe, parasite or virus in culture; type: cell-based, Pseudomonas aeruginosa; conditions: PA259-96196, 18 h
Method in brief: (§2)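 Minimum inhibitory concentration came from a CLSI broth dilution assay: 18 h at 37 °C, inoculum 5 × 10^5 CFU/mL final.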

[4] = tested on: P. aeruginosa PA262-101856; experiment: microbe, parasite or virus in culture; type: cell-based, Pseudomonas aeruginosa; conditions: PA262-101856, 18 h
Method in brief: as §2

K. pneumoniae 113250 [5] = experiment: microbe, parasite or virus in culture; type: cell-based, Klebsiella pneumoniae; conditions: 113250, 18 h
Method in brief: as §2

MRSE 61589 = type: cell-based, Staphylococcus epidermidis; conditions: 61589, 18 h
Procedure: as §1

MSSE 81388 = type: cell-based, Staphylococcus epidermidis; conditions: 18 h
Procedure: as §1

[6] = tested on: P. aeruginosa PA259-96196; type: cell-based, Pseudomonas aeruginosa; conditions: for MICUTBLP: UTBLP alone
Method in brief: (§3)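 Checkerboard synergy assay: antibiotic and OMP combined at varying concentrations with 5 × 10^5 CFU/mL inoculum (final), 37 °C, 18 h; growth read as turbidity at 590 nm. FICI = sum of FICs (MIC in combination / MIC alone); ≤0.5 synergistic, 0.5–4 additive, >4 antagonistic.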

[7] = tested on: P. aeruginosa PA262-101856; type: cell-based, Pseudomonas aeruginosa; conditions: for MICUTBLP: UTBLP alone
Method in brief: as §3

P. aeruginosa PAO1 = type: cell-based, Pseudomonas aeruginosa; conditions: for MICUTBLP: UTBLP alone
Method in brief: as §3

E. coli 94393 = type: cell-based, Escherichia coli; conditions: for MICUTBLP: UTBLP alone
Method in brief: as §3

E. coli 94474 = type: cell-based, Escherichia coli; conditions: for MICUTBLP: UTBLP alone
Method in brief: as §3

E. cloacae 118564 = type: cell-based, Enterobacter cloacae; conditions: for MICUTBLP: UTBLP alone
Method in brief: as §3

K. pneumoniae 113250 [8] = type: cell-based, Klebsiella pneumoniae; conditions: for MICUTBLP: UTBLP alone
Method in brief: as §3

E. faecalis ATCC 29212 [9] = type: cell-based, Enterococcus faecalis
Method in brief: as §3

E. faecium ATCC 27270 [10] = type: cell-based, Enterococcus faecium
Method in brief: as §3

[11] = UTBLP in combination with novobiocin
[12] = UTBLP in combination with rifampicin
[13] = novobiocin in combination with the UTBLP
[14] = rifampicin in combination with the UTBLP
[15] = UTBLP in combination with chloramphenicol
[16] = chloramphenicol in combination with the UTBLP
[17] = UTBLP alone, plate with chloramphenicol

With `CCCCCCCC(=O)NCCCC[C@H](NC(=O)CCCCCCC)C(=O)N[C@@H](CCCCN)C(=O)N[C@@H](CCCCN)C(=O)N[C@@H](CCCCN)C(=O)N[C@@H](CCCCN)C(N)=O` [UTBLP 5] (Octanoyl-K(Octanoyl)KKKK-NH2) the MIC (MRSA ATCC 33592) was 64 µg/mL (≈ 70.3 µM), the MIC (S. aureus ATCC 29213) was 64 µg/mL (≈ 70.3 µM) and the MIC (E. faecalis ATCC 29212 [1]) was 32 µg/mL (≈ 35.2 µM). For the same compound, the MIC (E. faecium ATCC 27270 [2]) was 32 µg/mL (≈ 35.2 µM), the MIC [3] was 128 µg/mL (≈ 141 µM) and the MIC [4] was greater than 128 µg/mL. The MIC (K. pneumoniae 113250 [5]) was greater than 128 µg/mL, the MIC (MRSE 61589) was 8 µg/mL (≈ 8.79 µM) and the MIC (MSSE 81388) was 16 µg/mL (≈ 17.6 µM). The Interpretation ([6]; UTBLP + novobiocin) was “Synergy (FICI ≤ 0.5 is synergistic)”, the Interpretation ([6]; UTBLP + rifampicin) was “Synergy (FICI ≤ 0.5 is synergistic)” and the MICUTBLP ([6]; plate with novobiocin) was 128 µg/mL. For the same compound, the MICUTBLP ([6]; plate with rifampicin) was greater than 128 µg/mL, the “MICUTBLP [MICcombo]” value [6, 11] was 4 µg/mL and the “MICUTBLP [MICcombo]” value [6, 12] was 8 µg/mL. The “MICantibiotic [MICcombo]” value [6, 13] was 16 µg/mL, the “MICantibiotic [MICcombo]” value [6, 14] was 0.5 µg/mL and the Interpretation ([7]; UTBLP + novobiocin) was “Synergy (FICI ≤ 0.5 is synergistic)”. The Interpretation ([7]; UTBLP + rifampicin) was “Synergy (FICI ≤ 0.5 is synergistic)”, the MICUTBLP ([7]; plate with novobiocin) was greater than 128 µg/mL and the MICUTBLP ([7]; plate with rifampicin) was greater than 128 µg/mL. The “MICUTBLP [MICcombo]” value [7, 11] was 16 µg/mL, the “MICUTBLP [MICcombo]” value [7, 12] was 16 µg/mL and the “MICantibiotic [MICcombo]” value [7, 13] was 16 µg/mL. The “MICantibiotic [MICcombo]” value [7, 14] was 32 µg/mL, the Interpretation (P. aeruginosa PAO1; UTBLP + chloramphenicol) was “Synergy (FICI ≤ 0.5 is synergistic)” and the Interpretation (P. aeruginosa PAO1; UTBLP + niclosamide) was “Synergy (FICI ≤ 0.5 is synergistic)”. For the same compound, the Interpretation (P. aeruginosa PAO1; UTBLP + novobiocin) was “Synergy (FICI ≤ 0.5 is synergistic)”, the Interpretation (P. aeruginosa PAO1; UTBLP + rifampicin) was “Synergy (FICI ≤ 0.5 is synergistic)” and the MICUTBLP (P. aeruginosa PAO1; plate with chloramphenicol) was greater than 128 µg/mL. It also gave an MICUTBLP (P. aeruginosa PAO1; plate with niclosamide) greater than 128 µg/mL, an MICUTBLP (P. aeruginosa PAO1; plate with novobiocin) greater than 128 µg/mL and an MICUTBLP (P. aeruginosa PAO1; plate with rifampicin) greater than 128 µg/mL. The “MICUTBLP [MICcombo]” value (P. aeruginosa PAO1; [15]) was 2 µg/mL, the “MICUTBLP [MICcombo]” value (P. aeruginosa PAO1; UTBLP in combination with niclosamide) was 4 µg/mL and the “MICUTBLP [MICcombo]” value (P. aeruginosa PAO1; [11]) was 16 µg/mL. For the same compound, the “MICUTBLP [MICcombo]” value (P. aeruginosa PAO1; [12]) was 16 µg/mL, the “MICantibiotic [MICcombo]” value (P. aeruginosa PAO1; [16]) was 2 µg/mL and the “MICantibiotic [MICcombo]” value (P. aeruginosa PAO1; niclosamide in combination with the UTBLP) was 4 µg/mL. The “MICantibiotic [MICcombo]” value (P. aeruginosa PAO1; [13]) was 8 µg/mL, the “MICantibiotic [MICcombo]” value (P. aeruginosa PAO1; [14]) was 0.5 µg/mL and the Interpretation (E. coli 94393; UTBLP + novobiocin) was “Synergy (FICI ≤ 0.5 is synergistic)”. For the same compound, the Interpretation (E. coli 94393; UTBLP + rifampicin) was “Synergy (FICI ≤ 0.5 is synergistic)”, the MICUTBLP (E. coli 94393; plate with novobiocin) was 32 µg/mL and the MICUTBLP (E. coli 94393; plate with rifampicin) was 32 µg/mL. The “MICUTBLP [MICcombo]” value (E. coli 94393; [11]) was 1 µg/mL, the “MICUTBLP [MICcombo]” value (E. coli 94393; [12]) was 4 µg/mL and the “MICantibiotic [MICcombo]” value (E. coli 94393; [13]) was 2 µg/mL. For the same compound, the “MICantibiotic [MICcombo]” value (E. coli 94393; [14]) was 0.125 µg/mL, the Interpretation (E. coli 94474; UTBLP + novobiocin) was “Synergy (FICI ≤ 0.5 is synergistic)” and the Interpretation (E. coli 94474; UTBLP + rifampicin) was “Synergy (FICI ≤ 0.5 is synergistic)”. The MICUTBLP (E. coli 94474; plate with novobiocin) was 128 µg/mL, the MICUTBLP (E. coli 94474; plate with rifampicin) was 128 µg/mL and the “MICUTBLP [MICcombo]” value (E. coli 94474; [11]) was 4 µg/mL. The “MICUTBLP [MICcombo]” value (E. coli 94474; [12]) was 2 µg/mL, the “MICantibiotic [MICcombo]” value (E. coli 94474; [13]) was 1 µg/mL and the “MICantibiotic [MICcombo]” value (E. coli 94474; [14]) was 0.25 µg/mL. The Interpretation (E. cloacae 118564; UTBLP + novobiocin) was “Synergy (FICI ≤ 0.5 is synergistic)”, the Interpretation (E. cloacae 118564; UTBLP + rifampicin) was “Synergy (FICI ≤ 0.5 is synergistic)” and the MICUTBLP (E. cloacae 118564; plate with novobiocin) was greater than 128 µg/mL. The MICUTBLP (E. cloacae 118564; plate with rifampicin) was greater than 128 µg/mL, the “MICUTBLP [MICcombo]” value (E. cloacae 118564; [11]) was 16 µg/mL and the “MICUTBLP [MICcombo]” value (E. cloacae 118564; [12]) was 8 µg/mL. The “MICantibiotic [MICcombo]” value (E. cloacae 118564; [13]) was 0.5 µg/mL, the “MICantibiotic [MICcombo]” value (E. cloacae 118564; [14]) was 0.5 µg/mL and the Interpretation (K. pneumoniae 113250 [8]; UTBLP + novobiocin) was “Synergy (FICI ≤ 0.5 is synergistic)”. The Interpretation (K. pneumoniae 113250 [8]; UTBLP + rifampicin) was “Synergy (FICI ≤ 0.5 is synergistic)”, the MICUTBLP (K. pneumoniae 113250 [8]; plate with novobiocin) was greater than 128 µg/mL and the MICUTBLP (K. pneumoniae 113250 [8]; plate with rifampicin) was greater than 128 µg/mL. The “MICUTBLP [MICcombo]” value (K. pneumoniae 113250 [8]; [11]) was 16 µg/mL, the “MICUTBLP [MICcombo]” value (K. pneumoniae 113250 [8]; [12]) was 8 µg/mL and the “MICantibiotic [MICcombo]” value (K. pneumoniae 113250 [8]; [13]) was 1 µg/mL. The “MICantibiotic [MICcombo]” value (K. pneumoniae 113250 [8]; [14]) was 0.5 µg/mL, the Interpretation (E. faecalis ATCC 29212 [9]; UTBLP + chloramphenicol) was “Additive (0.5 < x ≤ 4 is additive)” and the MICUTBLP (E. faecalis ATCC 29212 [9]; [17]) was 32 µg/mL. For the same compound, the “MICUTBLP [MICcombo]” value (E. faecalis ATCC 29212 [9]; [15]) was 4 µg/mL, the “MICchloramphenicol [MICcombo]” value (E. faecalis ATCC 29212 [9]; [16]) was 4 µg/mL and the Interpretation (E. faecium ATCC 27270 [10]; UTBLP + chloramphenicol) was “Additive (0.5 < x ≤ 4 is additive)”. The MICUTBLP (E. faecium ATCC 27270 [10]; [17]) was 32 µg/mL, the “MICUTBLP [MICcombo]” value (E. faecium ATCC 27270 [10]; [15]) was 8 µg/mL and the “MICchloramphenicol [MICcombo]” value (E. faecium ATCC 27270 [10]; [16]) was 2 µg/mL.
